Data as given in patent US20100311714A1, “1H-IMIDAZO[4,5-c]QUINOLINONE COMPOUNDS” (priority 2009, published 2010).

Test system: PKB Ser473 phosphorylation in Rat1-myr-HA-p110 delta cells
Assay: Reverse protein array, PKB Ser473 phosphorylation in Rat1-myr-HA-p110 delta cells
Type: cell-based
Conditions: Rattus norvegicus, 0.5 h, 30 minutes compound incubation, read-out: p-PKB/IC50_delta

Row | SMILES | IC50
1 | Cc1ncccc1-n1c(=O)n(C)c2cnc3ccc(-c4cnc5[nH]ccc5c4)cc3c21 [Example 2.8, 3-Methyl-1-(2-methyl-pyridin-3-yl)-8-(1H-pyrrolo[2,3-b]pyridin-5-yl)-1,3-dihydro-imidazo[4,5-c]quinolin-2-one] | 0.0138 µM
2 | COc1cc(-c2ccc3ncc4c(c3c2)n(-c2ccc(N)nc2C)c(=O)n4C)cnc1CO [Example 30.1, 1-(6-Amino-2-methyl-pyridin-3-yl)-8-(6-hydroxymethyl-5-methoxy-pyridin-3-yl)-3-methyl-1,3-dihydro-imidazo[4,5-c]quinolin-2-one] | 0.715 µM
3 | COc1cc(-c2ccc3ncc4c(c3c2)n(-c2ccc(N3CC(F)(F)C3)nc2C)c(=O)n4C)cnc1CO [Example 24.4, 1-[6-(3,3-Difluoro-azetidin-1-yl)-2-methyl-pyridin-3-yl]-8-(6-hydroxymethyl-5-methoxy-pyridin-3-yl)-3-methyl-1,3-dihydro-imidazo[4,5-c]quinolin-2-one] | 0.0885 µM
4 | CNc1ncc(-c2ccc3ncc4c(c3c2)n(-c2ccc(N3CC[C@@H](O)C3)nc2C)c(=O)n4C)cn1 [Example 34.1, 1-[6-((R)-3-Hydroxy-pyrrolidin-1-yl)-2-methyl-pyridin-3-yl]-3-methyl-8-(2-methylamino-pyrimidin-5-yl)-1,3-dihydro-imidazo[4,5-c]quinolin-2-one] | 0.042 µM
5 | CNc1ncc(-c2ccc3ncc4c(c3c2)n(-c2ccc(N3CC[C@H](O)C3)nc2C)c(=O)n4C)cc1Cl [Example 32.4, 8-(5-Chloro-6-methylamino-pyridin-3-yl)-1-[6-((S)-3-hydroxy-pyrrolidin-1-yl)-2-methyl-pyridin-3-yl]-3-methyl-1,3-dihydro-imidazo[4,5-c]quinolin-2-one] | 0.016 µM
6 | CCNc1cc(-c2ccc3ncc4c(c3c2)n(-c2ccc(N3CCCC3)nc2C)c(=O)n4C)cnc1CO [Example 25.5, 8-(5-Ethylamino-6-hydroxymethyl-pyridin-3-yl)-3-methyl-1-(2-methyl-6-pyrrolidin-1-yl-pyridin-3-yl)-1,3-dihydro-imidazo[4,5-c]quinolin-2-one] | 0.0076 µM
7 | COc1ccc(-n2c(=O)n(C)c3cnc4ccc(-c5cnc(CO)c(OC)c5)cc4c32)c(OC)n1 [Example 8.14, 1-(2,6-Dimethoxy-pyridin-3-yl)-8-(6-hydroxymethyl-5-methoxy-pyridin-3-yl)-3-methyl-1,3-dihydro-imidazo[4,5-c]quinolin-2-one] | 0.186 µM
8 | Cc1nc(N2CCC(O)C2)ccc1-n1c(=O)n(C)c2cnc3ccc(-c4cncc(C(C)(C)O)c4)cc3c21 (stereo not shown) [Example 27.5, 8-[5-(1-Hydroxy-1-methyl-ethyl)-pyridin-3-yl]-1-[6-(3-hydroxy-pyrrolidin-1-yl)-2-methyl-pyridin-3-yl]-3-methyl-1,3-dihydro-imidazo[4,5-c]quinolin-2-one] | 0.309 µM
9 | Cn1c(=O)n(-c2cccnc2F)c2c3cc(-c4cnc5[nH]ccc5c4)ccc3ncc21 [Example 6.3, 1-(2-Fluoro-pyridin-3-yl)-3-methyl-8-(1H-pyrrolo[2,3-b]pyridin-5-yl)-1,3-dihydro-imidazo[4,5-c]quinolin-2-one] | 0.0432 µM
10 | Cc1nc(N2CCC(O)C2)ccc1-n1c(=O)n(C)c2cnc3ccc(-c4cnc(N)c(C(F)(F)F)c4)cc3c21 (stereo not shown) [Example 27.3, 8-(6-Amino-5-trifluoromethyl-pyridin-3-yl)-1-[6-(3-hydroxy-pyrrolidin-1-yl)-2-methyl-pyridin-3-yl]-3-methyl-1,3-dihydro-imidazo[4,5-c]quinolin-2-one] | 0.0089 µM
11 | COc1cc(-c2ccc3ncc4c(c3c2)n(-c2ccc(N3CC[C@H](O)C3)nc2C)c(=O)n4C)cnc1CO [Example 32.7, 8-(6-Hydroxymethyl-5-methoxy-pyridin-3-yl)-1-[6-((S)-3-hydroxy-pyrrolidin-1-yl)-2-methyl-pyridin-3-yl]-3-methyl-1,3-dihydro-imidazo[4,5-c]quinolin-2-one] | 0.178 µM
12 | Cc1nc(F)ccc1-n1c(=O)n(C)c2cnc3ccc(-c4cncc(N5CCC5)c4)cc3c21 [Example 7.6, 8-(5-Azetidin-1-yl-pyridin-3-yl)-1-(6-fluoro-2-methyl-pyridin-3-yl)-3-methyl-1,3-dihydro-imidazo[4,5-c]quinolin-2-one] | 0.119 µM
13 | CCNc1cc(-c2ccc3ncc4c(c3c2)n(-c2ccc(N(C)CCO)nc2C)c(=O)n4C)cnc1CO [Example 26.3, 8-(5-Ethylamino-6-hydroxymethyl-pyridin-3-yl)-1-{6-[(2-hydroxy-ethyl)-methyl-amino]-2-methyl-pyridin-3-yl}-3-methyl-1,3-dihydro-imidazo[4,5-c]quinolin-2-one] | 0.0128 µM
14 | CCNc1cc(-c2ccc3ncc4c(c3c2)n(-c2ccc(N3CC(F)(F)C(F)(F)C3)nc2C)c(=O)n4C)cnc1CO [Example 35.2, 8-(5-Ethylamino-6-hydroxymethyl-pyridin-3-yl)-3-methyl-1-[2-methyl-6-(3,3,4,4-tetrafluoro-pyrrolidin-1-yl)-pyridin-3-yl]-1,3-dihydro-imidazo[4,5-c]quinolin-2-one] | 0.0163 µM
15 | COc1cc(-c2ccc3ncc4c(c3c2)n(-c2ccc(F)nc2C)c(=O)n4C)cnc1CO [Example 7.10, 1-(6-Fluoro-2-methyl-pyridin-3-yl)-8-(6-hydroxymethyl-5-methoxy-pyridin-3-yl)-3-methyl-1,3-dihydro-imidazo[4,5-c]quinolin-2-one] | 0.315 µM
16 | COCc1ncc(-c2ccc3ncc4c(c3c2)n(-c2ccc(F)nc2C)c(=O)n4C)cc1OC [Example 7.7, 1-(6-Fluoro-2-methyl-pyridin-3-yl)-8-(5-methoxy-6-methoxymethyl-pyridin-3-yl)-3-methyl-1,3-dihydro-imidazo[4,5-c]quinolin-2-one] | 0.598 µM
17 | COc1cc(-c2ccc3ncc4c(c3c2)n(-c2ccc(N3CCC(OC)C3)nc2C)c(=O)n4C)cnc1CO (stereo not shown) [Example 28.3, 8-(6-Hydroxymethyl-5-methoxy-pyridin-3-yl)-1-[6-(3-methoxy-pyrrolidin-1-yl)-2-methyl-pyridin-3-yl]-3-methyl-1,3-dihydro-imidazo[4,5-c]quinolin-2-one] | 0.121 µM
18 | CNc1ncc(-c2ccc3ncc4c(c3c2)n(-c2ccc(N3CCC(OC)C3)nc2C)c(=O)n4C)cn1 (stereo not shown) [Example 28.2, 1-[6-(3-Methoxy-pyrrolidin-1-yl)-2-methyl-pyridin-3-yl]-3-methyl-8-(2-methylamino-pyrimidin-5-yl)-1,3-dihydro-imidazo[4,5-c]quinolin-2-one] | 0.0229 µM
19 | COc1ccc(-n2c(=O)n(C)c3cnc4ccc(-c5cncc(N6CCC6)c5)cc4c32)c(OC)n1 [Example 8.11, 8-(5-Azetidin-1-yl-pyridin-3-yl)-1-(2,6-dimethoxy-pyridin-3-yl)-3-methyl-1,3-dihydro-imidazo[4,5-c]quinolin-2-one] | 0.0931 µM
20 | Cc1nc(N2CC(O)C2)ccc1-n1c(=O)n(C)c2cnc3ccc(-c4cncc(C(C)(C)O)c4)cc3c21 [Example 29.1, 1-[6-(3-Hydroxy-azetidin-1-yl)-2-methyl-pyridin-3-yl]-8-[5-(1-hydroxy-1-methyl-ethyl)-pyridin-3-yl]-3-methyl-1,3-dihydro-imidazo[4,5-c]quinolin-2-one] | 0.351 µM
21 | CCOc1ccc(-c2ccc3ncc4c(c3c2)n(-c2ccc(N3CCC(O)C3)nc2C)c(=O)n4C)cn1 (stereo not shown) [Example 27.4, 8-(6-Ethoxy-pyridin-3-yl)-1-[6-(3-hydroxy-pyrrolidin-1-yl)-2-methyl-pyridin-3-yl]-3-methyl-1,3-dihydro-imidazo[4,5-c]quinolin-2-one] | 0.0381 µM
22 | CNC(=O)c1ccc(-c2ccc3ncc4c(c3c2)n(-c2cccnc2C)c(=O)n4C)cc1 [Example 2.4, N-Methyl-4-[3-methyl-1-(2-methyl-pyridin-3-yl)-2-oxo-2,3-dihydro-1H-imidazo[4,5-c]quinolin-8-yl]-benzamide] | 0.0291 µM
23 | COc1ccc(-n2c(=O)n(C)c3cnc4ccc(-c5cnc(C(OC)OC)c(OC)c5)cc4c32)c(OC)n1 [Example 8.13, 8-(6-Dimethoxymethyl-5-methoxy-pyridin-3-yl)-1-(2,6-dimethoxy-pyridin-3-yl)-3-methyl-1,3-dihydro-imidazo[4,5-c]quinolin-2-one] | 0.599 µM
24 | COc1cc(-c2ccc3ncc4c(c3c2)n(-c2ccc(N3CCCC3)nc2C)c(=O)n4C)cnc1CO [Example 25.4, 8-(6-Hydroxymethyl-5-methoxy-pyridin-3-yl)-3-methyl-1-(2-methyl-6-pyrrolidin-1-yl-pyridin-3-yl)-1,3-dihydro-imidazo[4,5-c]quinolin-2-one] | 0.0581 µM
25 | COCc1ncc(-c2ccc3ncc4c(c3c2)n(-c2cccnc2C)c(=O)n4C)cc1OC [Example 2.30, 8-(5-Methoxy-6-methoxymethyl-pyridin-3-yl)-3-methyl-1-(2-methyl-pyridin-3-yl)-1,3-dihydro-imidazo[4,5-c]quinolin-2-one] | 0.336 µM
